Measurements published in patent US9006487B2, “Amine-containing lipids and uses thereof” (Massachusetts Institute of Technology, priority 2005, dated 2015).
Where “and” joins values, the source holds several entries; their conditions need not be identical. Equal values may be shown once.

Test system: cos-7 cells
Assay: DNA transfection: luciferase expression relative to Lipofectamine 2000
Assay type: cell-based
Settings: 300 ng Luciferase DNA per well, luciferase assay after 48 hours
Protocol: 14,000 cos-7 cells (ATCC, Manassas, Va.) were seeded into each well of a solid white or clear 96 well plate (Corning-Costar, Kennebunk, Me.) and allowed to attached overnight in growth medium, composed of: 500 ml phenol red minus DMEM, 50 ml heat inactivated FBS, 5 ml penicillin/streptomycin (Invitrogen, Carlsbad, Calif.).
A small liquot of lipid was tranferred to an Eppendorf tube. Based on the mass of the lipid in the tube, sterile 25 mM sodium acetate buffer was added to each tube to yield a concentration of 60 mg/ml. The resulting mixture was vortexed for approximately 20 minutes until the lipid was fully dissolved. DNA was prepared based on 300 ng DNA per well of a 96-well plate. 291 μg of Lc DNA was dissolved in 9210 μl of 25 mM sodium acetate buffer. Aliquots of 30 μl of DNA solution were added to each well expect for the last column which was reserved for the Lipo2000 standard. For the last column of the plate, 61 μg of DNA was added to 1940 μl Optimem. 150 μl of media/Optimem was added to each well of plates. 50 μl of lipid solution was aliquoted into wells of robot plate. The following amounts were aliquoted to obtain the correct ratios of DNA to lipid:
In quadruplicate, 30 μl of lipid was aliquoted onto DNA in four rows for each ratio. For the Lipo2000 control (2.5 w/w ratio to DNA), 152.5 μg of Lipo sample was aliquoted into 1847.5 μl of Optimem. 30 μl of this solution was aliquoted onto DNA in the Optimem in the last columns of each plate. The plates were incubated for 15-20 minutes, and then 36.5 μl of lipid+DNA complexes was transferred into 150 μl of media/Optimem, then add to cells. The media was aspirated off the cells, and 105 μl of the lipid/DNA/media/Optimem solution was added to the cells. The luciferase assay was performed after 48 hours.
Luminescence was analyzed using bright-glo assay kits (Promega). Briefly, 100 μl of bright-glo solution was added to each well of the microtiter plate containing media and cells. Luminescence was measured using a Mithras Luminometer (Berthold, Oak Ridge, Tenn.). In some cases, a neutral density filter (Chroma, Brattleboro, Vt.) was used to prevent saturation of the luminometer. A standard curve for Luciferase was generated by titration of Luciferase enzyme (Promega) into growth media in white microtiter plates. Luciferase in ng per well are calculated for each of the lipids at 2.5 w/w, 5 w/w, 10 w/w, 15 w/w, 20 w/w, and 25 w/w lipid to DNA based on the standard curve.
The table below summarizes the data as a % of the luciferase activity obtained from the use of Lipofectamine 2000. The table indicates the best lipids for transfection.

Structure (SMILES)	Luciferase expression as a percentage of that achieved using Lipofectamine 2000 (lipid/DNA 2.5 w/w) [%]	Luciferase expression as a percentage of that achieved using Lipofectamine 2000 (lipid/DNA 5 w/w)	Luciferase expression as a percentage of that achieved using Lipofectamine 2000 (lipid/DNA 10 w/w)	Luciferase expression as a percentage of that achieved using Lipofectamine 2000 (lipid/DNA 15 w/w)	Luciferase expression as a percentage of that achieved using Lipofectamine 2000 (lipid/DNA 20 w/w) [%]	Luciferase expression as a percentage of that achieved using Lipofectamine 2000 (lipid/DNA 25 w/w)
CCCCCCCCCCOC(=O)CCN(CCC(=O)OCCCCCCCCCC)C(CC)(CO)CO [LB34]	0.1	0.1%	0.2%	0.4%	0.1	0.1%
CCCCCCCCCCOC(=O)CCN(CCCCCCO)CCC(=O)OCCCCCCCCCC [LB36]	0.1	0.1%	0.1%	0.1%	0.1	0.1%
CCCCCCCCCCOC(=O)CCN(CCC(=O)OCCCCCCCCCC)C1CCC(O)CC1 (centres unmarked) [LB38]	0.7	0.8%	0.7%	0.8%	0.7	0.8%
CCCCCCCCCCOC(=O)CCN(C)CCN(C)CCC(=O)OCCCCCCCCCC [LB60]	0.4	0.4%	0.4%	0.4%	0.4	0.4%
CCCCCCCCCCOC(=O)CCN(CC)CCN(CC)CCC(=O)OCCCCCCCCCC [LB61]	0.1	0.1%	0.1%	0.1%	0.1	0.1%
CCCCCCCCCCOC(=O)CCN(CCN(CCC(=O)OCCCCCCCCCC)C(C)C)C(C)C [LB62]	0.1	0.1%	0.1%	0.1%	0.1	0.1%
CCCCCCCCCCOC(=O)CCN(C)CCCN(C)CCC(=O)OCCCCCCCCCC [LB63]	0.1	0.2% and 0.1%	0.1%	1.0% and 0.1%	0.1	0.2% and 0.1%
CCCCCCCCCCOC(=O)CCN(CC)CCCN(CC)CCC(=O)OCCCCCCCCCC [LB64]	0.1	0.1%	0.2% and 0.1%	0.1%	0.1	0.2% and 0.1%
CCCCCCCCCCOC(=O)CCN1CCCN(CCC(=O)OCCCCCCCCCC)CC1 [LB70]	0.1	0.1%	0.1%	0.1%	0.1	0.1%
CCCCCCCCCCOC(=O)CCN(CCC(=O)OCCCCCCCCCC)CCN(CC)CC [LB75]	0.1	0.1%	0.1%	0.1%	0.1	0.1%
CCCCCCCCCCOC(=O)CCN(CCC(=O)OCCCCCCCCCC)CCN1CCCC1 [LB76]	0.1	0.1%	0.1%	0.1%	0.1	0.1%
CCCCCCCCCCOC(=O)CCN(CCC(=O)OCCCCCCCCCC)CCC1CCCN1C (centres unmarked) [LB77]	0.1	0.1%	0.1%	0.2%	0.1	0.3%
CCCCCCCCCCOC(=O)CCN(CCC(=O)OCCCCCCCCCC)C(C)CN(C)C (centres unmarked) [LB79]	0.1	0.1%	0.1%	0.1%	0.1	0.1%
CCCCCCCCCCOC(=O)CCN(CCCN(C)C)CCC(=O)OCCCCCCCCCC [LB80]	0.7	0.8%	0.1%	0.2%	1.0	1.5%
CCCCCCCCCCOC(=O)CCN(CCCN(CC)CC)CCC(=O)OCCCCCCCCCC [LB81]	0.4	0.4%	0.2%	0.3%	0.4	0.5%
CCCCCCCCCCCCOC(=O)CCN(CCCCO)CCC(=O)OCCCCCCCCCCCC [LD28]	–	–	1.7%	8.5%	–	–
CCCCCCCCCCCCOC(=O)CCN(CCN(CCC(=O)OCCCCCCCCCCCC)C(C)C)C(C)C [LD62]	0.4	0.4%	0.4%	0.4%	0.4	0.5%
